Measured values reported in PubChem BioAssay AID179 (DTP/NCI, 2004).
pEC50, pIC50: −log10 of the molar value. The source made the active and inactive calls.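 How the source made its calls: active means compounds giving half or more protection of infected cells from virus-caused growth loss, again on retest; inactive means the rest.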

Test system: CEM cells HIV-1 protection, formazan growth assay
Assay: NCI AIDS Antiviral Assay
Conditions: for pIC50: measured here: growth of uninfected CEM cells
Summary of the method: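 CEM (human) cells, HIV-1 infected vs uninfected, 5-point dosing, formazan growth read-out. Retest threshold 50% protection.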

Compound | pEC50 | pIC50 | outcome
NC(=O)c1ccc(NN=O)nc1 | < 3.70 | < 3.70 | –
N#CC(c1nc2ccccc2nc1Cl)S(=O)(=O)c1ccccc1 (stereo not drawn) | < 3.98 | 5.17 | –
Brc1ccc(-c2cc3c(cc2C2SCCS2)OCO3)cc1 | < 4.17 | < 4.17 | –
N#Cc1c(-c2ccc(Cl)cc2)c(C#N)c(=O)n(NS(=O)(=O)c2ccccc2)c1O | < 3.70 | < 3.70 | –
Cc1sccc1C(=S)Nc1ccc(Cl)c(/C=N/OC(C)(C)C)c1 | 4.85 | 4.83 | –
COc1cccc2c(NCCCN(C)C)c3c([N+](=O)[O-])ccc(OC)c3nc12 | < 5.70 | 6.59 | –
CCCCCC(Nc1nncs1)Nc1nncs1 | < 3.70 | < 3.70 | –
NC1=NS(=O)(=O)Nc2nc[nH]c21 | < 2.88 | < 2.88 | –
O=C(c1ccc(Cl)cc1)c1ccc(OCCSCCCCCCCCCCSCCOc2ccc(C(=O)c3ccc(Cl)cc3)cc2)cc1 | < 4.86 | < 4.86 | –
CCOC(OC1=CCCC1)C(C)[Se]c1ccccc1 (stereo not drawn) | < 4.65 | < 4.65 | –
CCN(CC)CCN.O=c1cccccc1[O-].O=c1cccccc1[O-].[Co+3].[O-][Cl+3]([O-])([O-])[O-] | < 3.70 | 5.65 | –
O=C(NCCCCCCNC(=O)NCc1ccco1)NCc1ccco1 | < 4.84 | < 4.84 | –
C1=C(c2ccccc2)N2CCN=C2S1 | < 3.70 | 4.43 | –
CCOC(=O)Cc1csc2[n+]1C(=O)/C(=C/c1ccc(OC)c(OC)c1)S2 | < 3.70 | 4.70 | –
Cc1ccccc1C1SCc2nc3ccccc3n21 (stereo not drawn) | – | – | inactive
Cn1ccnc1CCc1ccc(F)cc1F | < 3.70 | < 3.70 | –
C/C(=N\NC(=O)CCSCCC(=O)N/N=C(\C)c1ccc(OS(C)(=O)=O)cc1)c1ccc(OS(C)(=O)=O)cc1 | < 3.70 | < 3.70 | –
Cc1nc(C(N)=S)sc1C(=O)C/C(=N/N)C(=O)Nc1ccc(Cl)cc1 | < 3.62 | < 3.62 | –
CN(C)c1ccc(/C=C(\C#N)C(N)=C(C#N)C#N)cc1 | 3.88 | < 3.70 | –
CCOC(=O)CSc1c(C(=O)OCC)c(=O)n(-c2ccccc2)c(=S)n1-c1ccccc1 | < 3.70 | 4.50 | –
COc1ccc(C2CCc3cc4c(cc3/C2=N/OC(C)=O)OCO4)cc1OC (stereo not drawn) | – | – | inactive

Compound | pEC50 | pIC50 | outcome
COc1cccc(C2c3cc4c(cc3OC(Nc3ccccc3)C2C)OCO4)c1OC (stereo not drawn) | < 3.70 | 5.53 | –
CCOC(=O)c1c2cccccc-2nc1Nc1ccccc1N1C=CC(C)C(C(=O)OC)=C1C(=O)OC (stereo not drawn) | < 3.70 | 3.89 | –
Cc1cccc2c(NCCCN(C)C)c3c([N+](=O)[O-])ccc(C)c3nc12 | < 5.70 | 6.79 | –
O=c1[nH]c2ccccc2c(O)c1-[n+]1ccccc1 | < 3.70 | < 3.70 | –
COC(=O)c1c/c(=N\NC(=O)CC(=O)Nc2ccccc2OC)c2ccccc2o1 | < 3.64 | < 3.64 | –
Cc1ccc(Oc2ccc(C)cc2[N+](=O)[O-])cc1 | – | – | inactive
Cc1ccc(NC(=O)C(=O)C2C(=O)NC(=O)NC2=O)cc1C | < 3.93 | < 3.93 | –
OC/C=C/[C@H](OCc1ccccc1)[C@H](/C=C/CO)OCc1ccccc1 | < 3.70 | 4.24 | –
Nc1nc(N)c(N)c(Nc2ccccc2)n1 | < 3.70 | 4.69 | –
CN(NC(=O)c1cccs1)C1=NCCCN1 | < 3.70 | < 3.70 | –
CC(C)/C=C/C1=C(O)c2ccccc2C(=O)C1=O | – | – | inactive
CC1C2Cc3ccc(O)cc3C1(C)CCN2CC1CC1 (stereo not drawn) | < 3.70 | < 3.70 | –
O=C1NC(=O)C(CCC(=O)c2cccc3ccccc23)C(=O)N1 | < 4.22 | < 4.22 | –
CC(C)(C)C1=CC(=N/N=c2\scc(-c3ccccc3)n2Cc2ccccc2)C=C(C(C)(C)C)C1=O | < 5.25 | < 5.25 | –
O=C(/C=C/c1ccsc1)c1ccc(Cl)cc1 | < 3.70 | 5.48 | –
CN(C)c1nc(N(C)C)n2c(-c3ccccc3[N+](=O)[O-])nnc2n1 | < 4.22 | 4.38 | –
N#CSCc1cccc(Nc2cc(=O)[nH]c(=O)[nH]2)c1 | < 3.70 | 4.59 | –
O=C1C=CC(=O)c2nc3c(cc21)CCC3 | < 4.04 | 4.98 | –
O=c1c2c3c(sc2nc2n1N=C(c1ccc([N+](=O)[O-])cc1)CS2)CCCC3 | < 3.70 | < 3.70 | –
O=S(=O)(O)c1cc(N=Nc2cc(S(=O)(=O)O)c3cccnc3c2O)ccc1C(O)C(O)c1ccc(N=Nc2cc(S(=O)(=O)O)c3cccnc3c2O)cc1S(=O)(=O)O (stereo not drawn) | 4.95 | < 3.70 | –
O=C(O)CCCC(=O)Nn1c(Cc2ccc(Cl)cc2)n[nH]c1=O | < 3.70 | < 3.70 | –

Compound | pEC50 | pIC50 | outcome
CCOC(=O)C(C(O)c1ccc([N+](=O)[O-])cc1)P(=O)(OCC)OCC (stereo not drawn) | < 3.18 | 4.03 | –
COC(=O)c1cc(C)n(NC(=O)OC(C)(C)C)c1C | < 3.60 | < 3.60 | –
OCC1CC(F)C(n2cnc3c(NC4CC4)ncnc32)O1 (stereo not drawn) | < 3.70 | < 3.70 | –
COc1cc(C2C(Cl)C(=O)N2NC(=O)Cc2ccccc2)cc(Br)c1O (stereo not drawn) | < 4.51 | < 4.51 | –
CC1(c2cccc(C3CC4(CCC3=O)OCCCCO4)c2)OCCO1 (stereo not drawn) | < 3.70 | < 3.70 | –
CN(C(=O)c1ccc(Cl)s1)C(=S)N(C)C(=O)c1ccc(Cl)s1 | < 3.92 | 3.94 | –
N#Cc1c(-c2ccc(Cl)cc2)[nH]c(=O)n(C2OC(CO)C(O)C(O)C2O)c1=O (stereo not drawn) | < 3.70 | < 3.70 | –
NNC(=O)CC(=O)N(C(=O)/C=C/c1ccccc1)c1ccc(Cl)cc1 | < 3.70 | < 3.70 | –
Nc1ncnc2c1ncn2-c1ccc([N+](=O)[O-])cn1 | – | – | inactive
Cc1ccc(S(=O)(=O)NC(N)=NCCCC(NC(=O)OCc2ccccc2)C(=O)N[C@H]2CC[C@H]3[C@@H]4CC=C5C[C@@H](O)CC[C@]5(C)[C@H]4CC[C@]23C)cc1 (stereo partly drawn) | < 3.70 | 4.46 | –
COC(=O)c1ccc(/C=C/S(=O)(=O)c2ccccc2)cc1 | < 5.32 | < 5.32 | –
O=C1/C(=C/c2cccs2)NC(=S)N1CN1CCOCC1 | < 3.70 | 4.46 | –
CCn1c(SCc2nnc(Nc3ccccc3)s2)nc2ccccc2c1=O | < 3.70 | 4.16 | –
COC(=O)c1onc(C2OC(C)(C)OC2C(O)COC(c2ccccc2)(c2ccccc2)c2ccccc2)c1C(=O)OC (stereo not drawn) | < 3.70 | 4.82 | –
O=C(CCCN1CCc2[nH]c3cc(F)ccc3c2C1)c1ccc(F)cc1 | < 3.70 | 4.61 | –
COc1ccc2nc3n(c2c1)C(c1c(F)cccc1Cl)SC3 (stereo not drawn) | < 3.70 | < 3.70 | –
COc1cc(-c2ccc(N=Nc3ccc4c(S(=O)(=O)O)cc(S(=O)(=O)O)c(N)c4c3O)c(OC)c2)ccc1N=Nc1ccc2c(S(=O)(=O)O)cc(S(=O)(=O)O)c(N)c2c1O | 5.30 | 4.31 | active
CCOc1cc2c(cc1O)CC[C@@H]1[C@@H]2CC[C@]2(C)C(N)CC[C@@H]12 (stereo partly drawn) | < 3.70 | 5.92 | –
[N-]=[N+]=C1C(=O)C2CC3CC1CC2C3 (stereo not drawn) | < 3.69 | < 3.69 | –
CCOc1ccc(NC(=O)/C(=N\N)C(C(=O)OC)c2nc3ccc(Cl)cc3[nH]c2=O)cc1 (stereo not drawn) | < 4.41 | < 4.41 | –
CCCCCNC(=O)Sc1ccccc1C(=O)N[C@H](C)C(N)=O | 6.00 | 3.91 | –

Compound | pEC50 | pIC50 | outcome
CC(=O)N=C1N(/C=C2\C(=O)Oc3ccccc3C2=O)C(=O)/C(=C/c2ccc(Cl)cc2Cl)N1C | < 3.70 | 4.46 | –
O=c1ccc2c(O)c3ccoc3cc2o1 | < 3.96 | 4.03 | –
CCN(CC)CC1CCCCN1CC(=O)N1c2ccccc2NC(=O)c2ccccc21 (stereo not drawn) | < 3.70 | < 3.70 | –
COc1cc(-c2ccc(N=Nc3cc(S(=O)(=O)O)c4cccc(S(=O)(=O)O)c4c3N)c(OC)c2)ccc1N=Nc1cc(S(=O)(=O)O)c2cccc(S(=O)(=O)O)c2c1N | 4.85 | 4.05 | –
Cc1ccc(C)c(COCCOCn2cc(N3CCOCC3)c(=O)[nH]c2=O)c1 | < 3.70 | < 3.70 | –
CCOC(=O)c1sc2c(c1OC(=O)c1ccc(OC)cc1)c(=O)n(-c1ccccc1)c(=S)n2-c1ccccc1 | < 3.70 | 4.41 | –
C[N+](C)=C1C=CC(=C2C=C(c3ccccc3)Oc3ccccc32)C=C1 | < 3.70 | 5.93 | –
Cc1oc2c(c(C)nn2-c2ccccc2)c(=O)c1Cl | < 3.70 | 3.76 | –
O=[N+]([O-])C(C(Cl)=C(Cl)Cl)=C(N1CCCCC1)N1CCCCC1 | < 3.70 | 3.73 | –
O=C(Nc1nc(=S)[nH][nH]1)C(=O)C(C(=O)c1ccc2ccccc2c1)C1OC(=O)c2ccccc21 (stereo not drawn) | < 4.26 | 4.59 | –
COc1ccc(C2OC[C@H]3O[C@@H](OCc4ccccc4)[C@H](O)[C@@H](O)[C@@H]3O2)cc1 (stereo partly drawn) | < 3.70 | 4.45 | –
COc1oc(C(=O)NC2CCCCC2)c(-c2ccc(Cl)cc2)c1S(=O)(=O)c1ccccc1 | < 3.70 | 5.01 | –
Cn1cc(NC(=O)Nc2cc(C(=O)Nc3cc(C(=O)Nc4cc(C(=O)Nc5ccc(S(=O)(=O)O)c6cc(S(=O)(=O)O)ccc56)n(C)c4)n(C)c3)n(C)c2)cc1C(=O)Nc1cc(C(=O)Nc2cc(C(=O)Nc3ccc(S(=O)(=O)O)c4cc(S(=O)(=O)O)ccc34)n(C)c2)n(C)c1 | 6.75 | 4.12 | –
O=C1NC(N2CCCCC2)=N/C1=C\c1ccc(Cl)cc1 | < 3.70 | 4.01 | –
O=C1NC2(CCNCC2)Oc2ccccc21 | < 3.70 | < 3.70 | –
O=C(CC1(O)C(=O)Nc2ccccc21)c1ccncc1 (stereo not drawn) | – | – | inactive
Cc1cccc2c1OC(=O)C1CNCOC21 (stereo not drawn) | < 3.70 | 4.48 | –
C[C@H]1CC[P+](Cc2ccccc2)(c2ccccc2)C1 (stereo partly drawn) | < 3.15 | 4.48 | –
N#CC1=C(O)NC(O)=C(C#N)C1c1c(Cl)cccc1Cl | < 3.37 | 4.56 | –
O=S1c2ccccc2S(=O)c2ccccc21 (stereo not drawn) | < 3.70 | < 3.70 | –
CC(CO)(CO)N1C(=O)C2C3C=CC(C3)C2C1=O (stereo not drawn) | < 3.70 | < 3.70 | –
